{"source": "ChEMBL document CHEMBL4616632", "about": "“Discovery of Cyclic Boronic Acid QPX7728, an Ultrabroad-Spectrum Inhibitor of Serine and Metallo-β-lactamases” (J Med Chem, 2020)", "key": {"[1]": {"assay": "Inhibition of […] OXA-48 using nitrocefin as substrate preincubated for 10 mins followed by substrate addition measured every 10 secs for 10 mins by spectrophotometrically analysis"}, "Klebsiella pneumoniae [2]": {"test_system": "Klebsiella pneumoniae", "assay": "Inhibition of Klebsiella pneumoniae KP1009 CTX-M-15 assessed as minimum concentration of compound required to reduce the MIC of aztreonam to 4 ug/ml"}, "Enterobacter cloacae": {"test_system": "Enterobacter cloacae", "assay": "Inhibition of Enterobacter cloacae ECL1002 AmpC assessed as minimum concentration of compound needed to reduce the MIC of aztreonam to 4 ug/ml"}, "Klebsiella pneumoniae [3]": {"test_system": "Klebsiella pneumoniae", "assay": "Inhibition of Klebsiella pneumoniae KP1054 VIM-1 assessed as minimum concentration of compound required to reduce the MIC of biapenem to 1 ug/ml"}, "Escherichia coli": {"test_system": "Escherichia coli", "assay": "Inhibition of Escherichia coli ECM6619 TEM-10 assessed as minimum concentration of compound needed to reduce the MIC of aztreonam to 4 ug/ml"}, "Dipeptidyl peptidase 2": {"biological_target": "Dipeptidyl peptidase 2 (Homo sapiens, UniProt Q9UHL4)", "assay": "Inhibition of mammalian DPP7 (unknown origin) using H-Lys-Pro-AMC as substrate preincubated for 10 mins followed by substrate addition measured after 30 mins"}, "[4]": {"biological_target": "Matrix metalloproteinase-9 (Homo sapiens, UniProt P14780)", "sequence (P14780 whole entry)": "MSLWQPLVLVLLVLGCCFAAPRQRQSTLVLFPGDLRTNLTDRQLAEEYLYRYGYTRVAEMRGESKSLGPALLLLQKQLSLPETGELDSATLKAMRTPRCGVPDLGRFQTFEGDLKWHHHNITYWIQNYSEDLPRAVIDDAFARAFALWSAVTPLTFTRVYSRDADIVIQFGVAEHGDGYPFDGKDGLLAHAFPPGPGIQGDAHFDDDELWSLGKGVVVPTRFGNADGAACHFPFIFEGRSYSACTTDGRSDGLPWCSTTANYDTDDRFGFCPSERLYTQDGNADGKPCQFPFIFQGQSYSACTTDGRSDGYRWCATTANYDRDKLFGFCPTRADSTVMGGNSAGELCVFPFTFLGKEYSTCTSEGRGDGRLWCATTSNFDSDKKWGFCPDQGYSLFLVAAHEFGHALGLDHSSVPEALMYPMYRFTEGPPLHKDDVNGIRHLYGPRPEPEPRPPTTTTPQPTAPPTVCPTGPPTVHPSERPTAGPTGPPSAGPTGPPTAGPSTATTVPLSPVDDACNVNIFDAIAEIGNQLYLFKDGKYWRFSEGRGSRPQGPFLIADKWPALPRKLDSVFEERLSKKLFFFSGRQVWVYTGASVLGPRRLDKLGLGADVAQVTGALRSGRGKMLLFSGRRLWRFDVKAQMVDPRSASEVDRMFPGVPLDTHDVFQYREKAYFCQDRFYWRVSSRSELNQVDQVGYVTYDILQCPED", "assay": "Inhibition of mammalian MMP-9 (unknown origin) using McaPLGLDpaAR-NH2 as substrate preincubated for 10 mins followed by substrate addition measured after 30 mins"}, "[5]": {"assay": "AUC in rat at 300 mg/kg, iv administered as infusion for 0.5 hrs by HPLC/MS analysis", "format": "ADME, organism-based", "conditions": "in vivo"}, "[6]": {"assay": "AUC in rat at 100 mg/kg, po administered via gavage by HPLC/MS analysis", "format": "ADME, organism-based", "conditions": "in vivo"}, "[7]": {"assay": "Clearance in rat at 10 mg/kg, iv administered as infusion for 0.5 hrs by HPLC/MS analysis", "format": "ADME, organism-based", "conditions": "in vivo"}, "[8]": {"assay": "Clearance in rat at 300 mg/kg, iv administered as infusion for 0.5 hrs by HPLC/MS analysis", "format": "ADME, organism-based", "conditions": "in vivo"}, "[9]": {"assay": "Cmax in rat at 10 mg/kg, iv administered as infusion for 0.5 hrs by HPLC/MS analysis", "format": "ADME, organism-based", "parameters": "dose 10 mg/kg, route intravenous", "conditions": "in vivo"}, "[10]": {"assay": "Cmax in rat at 100 mg/kg, po administered via gavage by HPLC/MS analysis", "format": "ADME, organism-based", "parameters": "dose 100 mg/kg, route oral", "conditions": "in vivo"}, "[11]": {"assay": "Half life in rat at 10 mg/kg, iv administered as infusion for 0.5 hrs by HPLC/MS analysis", "format": "ADME, organism-based", "conditions": "in vivo"}, "[12]": {"assay": "Half life in rat at 300 mg/kg, iv administered as infusion for 0.5 hrs by HPLC/MS analysis", "format": "ADME, organism-based", "conditions": "in vivo"}, "[13]": {"assay": "Half life in rat at 30 mg/kg, po administered via gavage by HPLC/MS analysis", "format": "ADME, organism-based", "conditions": "in vivo"}, "[14]": {"assay": "Half life in rat at 300 mg/kg, po administered via gavage by HPLC/MS analysis", "format": "ADME, organism-based", "conditions": "in vivo"}, "[15]": {"assay": "Oral bioavailability in rat at 30 mg/kg administered via gavage by HPLC/MS analysis", "format": "ADME, organism-based", "conditions": "in vivo"}, "[16]": {"assay": "Oral bioavailability in rat at 100 mg/kg administered via gavage by HPLC/MS analysis", "format": "ADME, organism-based", "conditions": "in vivo"}, "[17]": {"assay": "Oral bioavailability in rat at 100 mg/kg in fasted condition by HPLC/MS analysis", "format": "ADME, organism-based", "conditions": "in vivo"}, "[18]": {"assay": "Oral bioavailability in rat at 300 to 1000 mg/kg in fasted condition by HPLC/MS analysis", "format": "ADME, organism-based", "conditions": "in vivo"}, "Klebsiella pneumoniae [19]": {"test_system": "Klebsiella pneumoniae", "assay": "(§1) Potentiation of meropenem-induced bacteriostatic activity against carbapenem-resistant Klebsiella pneumoniae KP1244 harboring KPC-3, SHV-11, and SHV-12 infected in Swiss-Webster mouse model of neutropenic thigh infection assessed as log change in bacterial count in thigh at 0.5 mg/kg, ip administered at 2 hrs interval for 24 hrs starting from 2 hr post infection and measured post last dose (reference value: 0.62 log10CFU)", "format": "functional"}, "Klebsiella pneumoniae [20]": {"test_system": "Klebsiella pneumoniae", "assay": "as §1, with “5” for “0.5”", "format": "functional"}, "[21]": {"assay": "Toxicity in rat at 30 to 1000 mg/kg, po administered via gavage", "format": "organism-based", "conditions": "in vivo"}, "Enterobacterales [22]": {"test_system": "Enterobacterales", "assay": "Potentiation of cefepime-induced antibacterial activity against Enterobacterales assessed as cefepime MIC50 at 8 ug/ml by broth microdilution method (reference value: 32 ug/ml)", "format": "functional"}, "Enterobacteriaceae [23]": {"test_system": "Enterobacteriaceae", "assay": "Potentiation of cefepime-induced antibacterial activity against carbapenem-resistant Enterobacteriaceae assessed as cefepime MIC50 at 8 ug/ml by broth microdilution method (Rvb > 32 ug/ml)", "format": "functional"}, "Acinetobacter baumannii [24]": {"test_system": "Acinetobacter baumannii", "assay": "Potentiation of cefepime-induced antibacterial activity against carbapenem-resistant Acinetobacter baumannii assessed as cefepime MIC50 at 8 ug/ml by broth microdilution method (Rvb > 32 ug/ml)", "format": "functional"}, "Pseudomonas aeruginosa [25]": {"test_system": "Pseudomonas aeruginosa", "assay": "Potentiation of cefepime-induced antibacterial activity against Pseudomonas aeruginosa assessed as cefepime MIC50 at 8 ug/ml by broth microdilution method (reference value: 4 ug/ml)", "format": "functional"}, "Enterobacterales [26]": {"test_system": "Enterobacterales", "assay": "Potentiation of cefepime-induced antibacterial activity against Enterobacterales assessed as cefepime MIC90 at 8 ug/ml by broth microdilution method (Rvb > 32 ug/ml)", "format": "functional"}, "Enterobacteriaceae [27]": {"test_system": "Enterobacteriaceae", "assay": "Inhibition of OXA-48 in carbapenem-resistant Enterobacteriaceae assessed as potentiation of cefepime-induced antibacterial activity by measuring cefepime MIC90 at 8 ug/ml by broth microdilution method (Rvb > 32 ug/ml)"}, "Enterobacteriaceae [28]": {"test_system": "Enterobacteriaceae", "assay": "Potentiation of cefepime-induced antibacterial activity against carbapenem-resistant Enterobacteriaceae assessed as cefepime MIC90 at 8 ug/ml by broth microdilution method (Rvb > 32 ug/ml)", "format": "functional"}, "Enterobacteriaceae [29]": {"test_system": "Enterobacteriaceae", "assay": "Inhibition of OXA-48 in carbapenem-resistant Enterobacteriaceae assessed as potentiation of ceftolozane-induced antibacterial activity by measuring ceftolozane MIC50 at 8 ug/ml by broth microdilution method (Rvb > 32 ug/ml)"}, "Acinetobacter baumannii [30]": {"test_system": "Acinetobacter baumannii", "assay": "Potentiation of ceftolozane-induced antibacterial activity against carbapenem-resistant Acinetobacter baumannii assessed as ceftolozane MIC50 at 8 ug/ml by broth microdilution method (Rvb > 32 ug/ml)", "format": "functional"}, "Enterobacteriaceae [31]": {"test_system": "Enterobacteriaceae", "assay": "Inhibition of NDM/VIM in carbapenem-resistant Enterobacteriaceae assessed as potentiation of ceftolozane-induced antibacterial activity by measuring ceftolozane MIC90 at 8 ug/ml by broth microdilution method (Rvb > 32 ug/ml)"}, "Acinetobacter baumannii [32]": {"test_system": "Acinetobacter baumannii", "assay": "Potentiation of ceftolozane-induced antibacterial activity against carbapenem-resistant Acinetobacter baumannii assessed as ceftolozane MIC90 at 8 ug/ml by broth microdilution method (Rvb > 32 ug/ml)", "format": "functional"}, "Enterobacteriaceae [33]": {"test_system": "Enterobacteriaceae", "assay": "Potentiation of meropenem-induced antibacterial activity against carbapenem-resistant Enterobacteriaceae assessed as meropenem MIC50 at 8 ug/ml by broth microdilution method (reference value: 8 ug/ml)", "format": "functional"}, "Enterobacteriaceae [34]": {"test_system": "Enterobacteriaceae", "assay": "Inhibition of OXA-48 in carbapenem-resistant Enterobacteriaceae assessed as potentiation of meropenem-induced antibacterial activity by measuring meropenem MIC90 at 8 ug/ml by broth microdilution method (Rvb > 32 ug/ml)"}, "Pseudomonas aeruginosa [35]": {"test_system": "Pseudomonas aeruginosa", "assay": "Potentiation of meropenem-induced antibacterial activity against Pseudomonas aeruginosa assessed as meropenem MIC90 at 8 ug/ml by broth microdilution method (reference value: 16 ug/ml)", "format": "functional"}}, "data": [{"compound": "O=C(O)c1c(F)ccc2c1OB(O)[C@@H]1C[C@H]21", "note": "[XERUBORBACTAM]", "values": [{"measurement": "Ki", "setting": "[1]", "value": 0.00028, "unit": "µM"}, {"measurement": "MEC", "setting": "Klebsiella pneumoniae [2]", "value": 0.3, "unit": "µg/mL"}, {"measurement": "MEC", "setting": "Enterobacter cloacae", "value": 0.6, "unit": "µg/mL"}, {"measurement": "MEC", "setting": "Klebsiella pneumoniae [3]", "value": 0.16, "unit": "µg/mL"}, {"measurement": "MEC", "setting": "Escherichia coli", "value": 0.16, "unit": "µg/mL"}, {"measurement": "IC50", "setting": "Dipeptidyl peptidase 2", "value": "> 1000", "unit": "µM"}, {"measurement": "IC50", "setting": "[4]", "value": "> 1000", "unit": "µM"}, {"measurement": "AUC at 0.5 h", "setting": "[5]", "value": 608, "unit": "µg·h/mL"}, {"measurement": "AUC", "setting": "[6]", "value": 89.7, "unit": "µg·h/mL"}, {"measurement": "clearance", "setting": "[7]", "value": 4.83, "unit": "mL/min/kg"}, {"measurement": "clearance", "setting": "[8]", "value": 8.17, "unit": "mL/min/kg"}, {"measurement": "Cmax", "setting": "[9]", "value": 26100, "unit": "ng/mL"}, {"measurement": "Cmax", "setting": "[10]", "value": 28800, "unit": "ng/mL"}, {"measurement": "half-life", "setting": "[11]", "value": 1.25, "unit": "h"}, {"measurement": "half-life", "setting": "[12]", "value": 1.18, "unit": "h"}, {"measurement": "half-life", "setting": "[13]", "value": 4.4, "unit": "h"}, {"measurement": "half-life", "setting": "[14]", "value": 3.65, "unit": "h"}, {"measurement": "bioavailability", "setting": "[15]", "value": 53.2, "unit": "%"}, {"measurement": "bioavailability", "setting": "[16]", "value": 42.6, "unit": "%"}, {"measurement": "bioavailability", "setting": "[17]", "value": 53, "unit": "%"}, {"measurement": "bioavailability", "setting": "[18]", "value": "24 to 28", "unit": "%"}, {"measurement": "Activity", "setting": "Klebsiella pneumoniae [19]", "value": -0.03, "unit": "log10CFU"}, {"measurement": "Activity", "setting": "Klebsiella pneumoniae [20]", "value": -0.88, "unit": "log10CFU"}, {"measurement": "Activity", "setting": "[21]", "value": "Non-Toxic"}, {"measurement": "MIC50", "setting": "Enterobacterales [22]", "value": "≤ 0.06", "unit": "µg/mL"}, {"measurement": "MIC50", "setting": "Enterobacteriaceae [23]", "value": 0.125, "unit": "µg/mL"}, {"measurement": "MIC50", "setting": "Acinetobacter baumannii [24]", "value": 16, "unit": "µg/mL"}, {"measurement": "MIC50", "setting": "Pseudomonas aeruginosa [25]", "value": 2, "unit": "µg/mL"}, {"measurement": "MIC90", "setting": "Enterobacterales [26]", "value": 0.25, "unit": "µg/mL"}, {"measurement": "MIC90", "setting": "Enterobacteriaceae [27]", "value": 0.5, "unit": "µg/mL"}, {"measurement": "MIC90", "setting": "Enterobacteriaceae [28]", "value": 0.5, "unit": "µg/mL"}, {"measurement": "MIC50", "setting": "Enterobacteriaceae [29]", "value": 0.25, "unit": "µg/mL"}, {"measurement": "MIC50", "setting": "Acinetobacter baumannii [30]", "value": 8, "unit": "µg/mL"}, {"measurement": "MIC90", "setting": "Enterobacteriaceae [31]", "value": "> 32", "unit": "µg/mL"}, {"measurement": "MIC90", "setting": "Acinetobacter baumannii [32]", "value": 32, "unit": "µg/mL"}, {"measurement": "MIC50", "setting": "Enterobacteriaceae [33]", "value": 0.125, "unit": "µg/mL"}, {"measurement": "MIC90", "setting": "Enterobacteriaceae [34]", "value": 0.125, "unit": "µg/mL"}, {"measurement": "MIC90", "setting": "Pseudomonas aeruginosa [35]", "value": 8, "unit": "µg/mL"}]}]}
